Where “and” joins values, the source holds several entries; their conditions need not be identical. Identical values can stand only once.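 Assay format: 96-well plates, 48-hour exposure. At the GI50, growth is halved. TGI: total growth inhibition.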
Experiments:
Test in all cases: inhibition of tumour cell growth, NCI panel, 48 h
[1] = tested on: NCI-H226 lung
[2] = tested on: COLO 205 colon
[3] = tested on: SF-539 CNS
[4] = tested on: UACC-62 melanoma
[5] = tested on: IGROV1 ovarian
[6] = tested on: TK-10 renal
[7] = tested on: HCT-15 colon
[8] = tested on: DU-145 prostate
[9] = tested on: T-47D breast
[10] = tested on: SF-295 CNS

Row | Compound | GI50 [1] | TGI [1] [µM] | GI50 [2] | TGI [2] | GI50 [3] | TGI [3] | GI50 [4] | TGI [4] [µM] | GI50 [5] | TGI [5] [µM] | GI50 [6] | TGI [6] | GI50 [7] | TGI [7] [µM] | GI50 [8] | TGI [8] | GI50 [9] | TGI [9] | GI50 [10] | TGI [10]
1 | CC1(C)N=C(N)N=C(N)N1c1ccc(OCC(=O)Nc2ccc(S(=O)(=O)F)cc2Cl)c(Cl)c1 | 57.8 µM | > 100 | 21.1 µM | > 100 µM | 4.77 µM | > 100 µM | 1.16 µM | > 100 | 0.42 µM | > 100 | 15.4 µM | > 100 µM | 4.15 µM | > 100 | 5.69 µM | > 100 µM | > 100 µM | > 100 µM | 5.23 µM | > 100 µM
2 | CCc1ccc(Oc2c(-c3ccc(OCCc4cccc(C(F)(F)F)c4)cc3O)n[nH]c2C(F)(F)F)cc1 | 6.9 µM | 14.3 | 8.72 µM | 15.8 µM | 7.39 µM | 14 µM | 3.44 µM | 10.4 | 2.51 µM | 8.72 | 5.52 µM | 11.5 µM | 1.96 µM | 6.89 | 2.62 µM | 8.35 µM | 1.43 µM | 4.95 µM | 8.12 µM | 15.4 µM
3 | CC(C)(C)N1CC1CNC(=O)C(=O)NCC1CN1C(C)(C)C (centres undefined) | – | 18.7 | – | 8.5 µM | – | 13.7 µM | – | 6.82 | – | 19.7 | – | > 100 µM | – | 10.5 | – | > 26.9 µM | – | 98.1 µM | – | 14.3 µM
4 | Cn1c2c(c3ccccc31)CCN1C[C@@H]3CCCC[C@H]3C[C@@H]21 | 2.75 µM | > 26.1 | 2.04 µM | 4.68 µM | 2.87 µM | > 30 µM | 4.19 µM | > 100 | 3.45 µM | > 54.6 | 3.01 µM | 23.2 µM | 2.55 µM | > 100 | 2.36 µM | 5.8 µM | 14.1 µM | > 100 µM | 2.25 µM | 6.58 µM
5 | CN1C(=O)C(N=Nc2ccc([N+](=O)[O-])cc2)SC1=S (centres undefined) | 21 µM and 18 µM | > 100 | 4 µM and 10 µM | 18 µM and 23 µM | 6.57 µM and 7.08 µM | 58.1 µM and 70.4 µM | 3.29 µM and 2.85 µM | > 100 | 1.99 µM and 11.4 µM | – | 12.6 µM and 5.87 µM | 79.7 µM and > 100 µM | 2.63 µM and 6.8 µM | > 100 | 7.11 µM and 22.1 µM | 41.6 µM and > 100 µM | 2.71 µM and 4.26 µM | > 100 µM and 47.5 µM | 1.62 µM and 3.04 µM | 6.27 µM and 24.9 µM
6 | COc1ccc(OC)c(C2=C(c3cn(C)c4ccccc34)C(=O)NC2=O)c1 | > 25 µM | > 25 | > 25 µM | > 25 µM | > 25 µM | > 25 µM | > 25 µM | > 25 | > 25 µM | > 25 | > 25 µM | > 25 µM | > 23.9 µM | > 25 | > 25 µM | > 25 µM | > 25 µM | > 25 µM | > 22.7 µM | > 25 µM
7 | NC(=O)c1c[nH]c2ncnc(N)c12 | 67.3 µM | > 100 | 27 µM | > 100 µM | 44.8 µM | > 100 µM | 95.6 µM | > 100 | 36.6 µM | > 100 | 19.6 µM | > 100 µM | 41.8 µM | > 100 | 44.6 µM | > 100 µM | 35.3 µM | > 100 µM | 31.1 µM | > 100 µM
8 | CC(C)[C@@]12C[C@@H](OC(=O)COC(=O)c3ccccc3)[C@@](C)(O1)[C@@H]1CC[C@@H](C)[C@H]1[C@@H]2OC(=O)/C=C/c1ccccc1 | 18.7 µM | > 100 | > 100 µM | > 100 µM | > 100 µM | > 100 µM | > 100 µM | > 100 | > 100 µM | > 100 | > 100 µM | > 100 µM | > 89 µM | > 100 | > 100 µM | > 100 µM | > 34.6 µM | > 100 µM | > 100 µM | > 100 µM
9 | COc1cccc(C(=O)NNc2nc(Cl)nc(N3CCN(C(c4ccccc4)c4ccccc4)CC3)n2)c1 | 17 µM | 38 | 3.67 µM | 14.3 µM | 2.08 µM | 4.3 µM | 2.3 µM | 5.85 | 1.63 µM | 3.07 | 51 µM | > 100 µM | 1.9 µM | 3.73 | 4.3 µM | 15.3 µM | > 100 µM | > 100 µM | 16.8 µM | 30.4 µM
10 | CC[C@]12C=CCN3CC[C@@]4(c5ccc(OC)cc5N(C)[C@H]4[C@@](O)(C(=O)OC)[C@@H]1OC(=O)CCC(=O)O[C@H]1CC[C@H]4[C@@H]5CCC6=CC(=O)CC[C@@H]6[C@H]5CC[C@]14C)[C@@H]32 | 2.07 µM | > 50 | 0.941 µM | 1.94 µM | 1.75 µM | 7.21 µM | 1.12 µM | 3.13 | 0.973 µM | 3.13 | 1.91 µM | > 50 µM | 1.51 µM | > 50 | 2.73 µM | > 50 µM | 1.79 µM | > 50 µM | 1.69 µM | > 50 µM
